Drawing on patent US6506766B1 (Abbott Laboratories, priority 1998, dated 2003), this text covers Ki for 22 compounds.

In experiment [1] the target is T1, human glucocorticoid receptor-α [GRX] isoform (Homo sapiens, UniProt P04150).
T1 construct: host or cells: insect SF21 cells (baculovirus)
T1 sequence (P04150 1-777): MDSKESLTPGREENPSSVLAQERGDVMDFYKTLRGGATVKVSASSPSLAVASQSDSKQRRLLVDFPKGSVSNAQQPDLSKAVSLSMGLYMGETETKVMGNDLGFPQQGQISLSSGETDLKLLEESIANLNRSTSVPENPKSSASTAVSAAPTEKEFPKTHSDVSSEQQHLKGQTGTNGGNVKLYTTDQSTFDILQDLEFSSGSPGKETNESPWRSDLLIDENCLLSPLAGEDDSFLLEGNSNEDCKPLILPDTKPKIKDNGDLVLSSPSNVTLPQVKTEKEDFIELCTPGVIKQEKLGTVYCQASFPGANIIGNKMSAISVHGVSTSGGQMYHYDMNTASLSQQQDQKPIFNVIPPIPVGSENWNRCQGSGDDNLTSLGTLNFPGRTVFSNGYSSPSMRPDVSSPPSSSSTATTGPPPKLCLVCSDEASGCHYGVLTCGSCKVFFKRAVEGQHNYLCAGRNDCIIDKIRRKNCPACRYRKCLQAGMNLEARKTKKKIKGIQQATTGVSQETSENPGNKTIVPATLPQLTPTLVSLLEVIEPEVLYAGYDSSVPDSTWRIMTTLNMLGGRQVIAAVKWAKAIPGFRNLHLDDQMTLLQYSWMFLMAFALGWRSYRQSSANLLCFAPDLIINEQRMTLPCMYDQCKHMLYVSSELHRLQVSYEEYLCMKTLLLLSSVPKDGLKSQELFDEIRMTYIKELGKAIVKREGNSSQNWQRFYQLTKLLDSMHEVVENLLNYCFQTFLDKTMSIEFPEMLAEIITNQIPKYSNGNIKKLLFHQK
Briefly: Radioligand binding with human glucocorticoid receptor cytosol ([3H]-dexamethasone competition).

Experiment [2] concerns the target T2, human progesterone receptor-A [PRA] isoform (Homo sapiens, UniProt P06401).
T2 construct: host or cells: insect SF21 cells (baculovirus)
T2 sequence (P06401 1-769 isoform P06401-2): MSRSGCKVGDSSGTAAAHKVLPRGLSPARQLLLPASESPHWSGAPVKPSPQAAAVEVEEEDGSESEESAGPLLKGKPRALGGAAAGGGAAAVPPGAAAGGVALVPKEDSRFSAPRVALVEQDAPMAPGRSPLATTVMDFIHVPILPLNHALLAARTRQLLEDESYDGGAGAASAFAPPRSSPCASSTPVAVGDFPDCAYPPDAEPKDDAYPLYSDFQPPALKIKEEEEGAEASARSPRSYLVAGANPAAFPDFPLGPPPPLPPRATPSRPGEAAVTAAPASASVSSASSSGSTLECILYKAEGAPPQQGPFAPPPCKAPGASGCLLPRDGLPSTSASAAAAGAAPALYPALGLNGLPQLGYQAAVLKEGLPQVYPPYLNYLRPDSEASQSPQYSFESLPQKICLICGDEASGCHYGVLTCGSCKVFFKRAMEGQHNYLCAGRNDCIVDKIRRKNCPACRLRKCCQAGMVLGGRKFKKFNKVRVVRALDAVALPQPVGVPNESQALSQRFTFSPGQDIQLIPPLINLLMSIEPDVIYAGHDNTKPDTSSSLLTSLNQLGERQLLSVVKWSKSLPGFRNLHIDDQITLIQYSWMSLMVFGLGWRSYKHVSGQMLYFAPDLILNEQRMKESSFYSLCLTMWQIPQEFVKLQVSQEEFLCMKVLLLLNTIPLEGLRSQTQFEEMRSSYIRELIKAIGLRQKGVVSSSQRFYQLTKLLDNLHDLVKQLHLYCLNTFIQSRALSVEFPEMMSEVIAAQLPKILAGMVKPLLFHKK
Briefly: Radioligand binding with human progesterone receptor cytosol ([3H]-progesterone competition). The conditions noted are these: PRA cytosol expressed in insect SF21 cells, [3H]Prog ~0.8 nM, 4° C. overnight; Ki by Cheng-Prusoff, KL ~4.5 nM; read-out: Ki (nM) PR.

The mark [3] stands for this setting: GRX cytosol expressed in insect SF21 cells, [3H]-Dex ~0.9 nM, 4° C. overnight, Ki by Cheng-Prusoff, KL ~[…], read-out: Ki (nM) GR.

Read-outs that look alike come from different tables or passages of the source.

With `C=C1CCCCC1C1Oc2cccc(OC)c2-c2ccc3c(c21)C(C)=CC(C)(C)N3` (mixture of isomers) [Example 141, 2,5-Dihydro-10-methoxy-5-(1-methylene-2-cyclohexyl)-2,2,4-trimethyl-1H-[1]benzopyrano[3,4-f]quinoline], the Ki is 10 nM in experiment [1] (Ki (nM) GR) and at least 10000 nM in experiment [2].
On to `COc1cccc2c1-c1ccc3c(c1C(CC(O)CO)O2)C(C)=CC(C)(C)N3` (mixture of isomers) [Example 174, 2,5-Dihydro-10-methoxy-5-(1,2-dihydroxy-3-propyl)-2,2,4-trimethyl-1H-[1]benzopyrano[3,4-f]quinoline], for which the inhibitory constant (Ki) in experiment [1] (setting [3]) is 270 nM; in experiment [2], at least 10000 nM.
For `COc1c(O)ccc2c1-c1ccc3c(c1C(C1C=CCCC1)O2)C(C)=CC(C)(C)N3` (racemic) [Example 236], the inhibition constant Ki in experiment [1] (setting [3]) was 0.89 nM; in experiment [2], 36.2 nM.
For `COc1c(O)ccc2c1-c1ccc3c(c1[C@H]([C@H]1C=C(C)CCC1)O2)C(C)=CC(C)(C)N3` (racemic) [Example 243, (+/−)(5S,3′R)2,5-Dihydro-9-hydroxy-10-methoxy-2,2,4-trimethyl-5-(1-methylcyclohexen-3-yl)-1H-[1]benzopyrano[3,4-f]quinoline], the Ki in experiment [1] (setting [3]) came out at 1.6 nM; in experiment [2] it was 21.2 nM.
Turning to `COc1c(O)ccc2c1-c1ccc3c(c1C(c1c(F)c(F)c(F)c(F)c1F)O2)C(C)=CC(C)(C)N3` (racemic) [Example 269, (±)2,5-Dihydro-9-hydroxy-10-methoxy-2,2,4-trimethyl-5-(2,3,4,5,6-pentafluorophenyl)-1H-[1]benzopyrano[3,4-f]quinoline], the Ki was determined as 17.1 nM in experiment [1] (setting [3]) and 2470 nM in experiment [2].
With `COC(=O)C1=C[C@@H]([C@@H]2Oc3ccc(O)c(OC)c3-c3ccc4c(c32)C(C)=CC(C)(C)N4)CC1` (racemic) [Example 271, (+/−)2,5-Dihydro-9-hydroxy-10-methoxy-2,2,4-trimethyl-5(S)-(3(S)-1-methylcarboxylatecyclopenten-3-yl)-1H-[1]benzopyrano[3,4-f]quinoline], the Ki in experiment [1] (setting [3]) came to 0.82 nM; in experiment [2] it was 2290 nM.
Turning to `COc1c(O)ccc2c1-c1ccc3c(c1C(c1ccccc1C)O2)C(C)=CC(C)(C)N3` (racemic) [Example 275, (±)2,5-Dihydro-9-hydroxy-10-methoxy-2,2,4-trimethyl-5-(2-methylphenyl)-1H-[1]benzopyrano[3,4-f]quinoline], the inhibition constant Ki in experiment [1] (setting [3]) is 11.7 nM; in experiment [2], 2870 nM.
Regarding `COc1c(C)ccc2c1-c1ccc3c(c1C(C1C=C(C)CCC1)O2)C(C)=CC(C)(C)N3` (racemic) [Example 307, (+/−)2,5-Dihydro-9-methyl-10-methoxy-2,2,4-trimethyl-5-(1-methylcyclohexen-3-yl)-1H-[1]benzopyrano[3,4-f]quinoline], the Ki worked out at 4.6 nM in experiment [1] (setting [3]) and 27.8 nM in experiment [2].
Take `CC1=CC(C)(C)Nc2ccc3c(c21)C(c1ccccc1)Oc1cccc(Cl)c1-3` (racemic) [Example 310, (+/−)2,5-Dihydro-10-chloro-2,2,4-trimethyl-5-phenyl-1H-[1]benzopyrano[3,4-f]quinoline]: the inhibition constant (Ki) is 4.4 nM in experiment [1] (setting [3]) and 382 nM in experiment [2].
In the case of `C=CCC1Oc2ccc(OC(=O)CCCNC(C)=O)c(OC)c2-c2ccc3c(c21)C(C)=CC(C)(C)N3` (racemic) [Example 344, (+/−)2,5-Dihydro-9-(4-acetamidobutanoyloxy)-10-methoxy-2,2,4-trimethyl-5-allyl-1H-[1]benzopyranol[3,4-f]quinoline], the results for the Ki in experiment [1] (setting [3]) and in experiment [2] were 0.46 nM and 76.7 nM, respectively.
With `C=CCC1Oc2ccc(OCC#N)c(OC)c2-c2ccc3c(c21)C(C)=CC(C)(C)N3` (racemic) [Example 377, (+/−)2,5-Dihydro-9-cyanomethoxy-10-methoxy-2,2,4-trimethyl-5-allyl-1H-[1]benzopyrano[3,4-f]quinoline], the Ki in experiment [1] (setting [3]) amounted to 51 nM; in experiment [2], 3080 nM.
Turning to `C=CCC1Oc2ccc(OC(=O)CCNC(C)=O)c(OC)c2-c2ccc3c(c21)C(C)=CC(C)(C)N3` (racemic) [Example 428, (+/−)2,5-Dihydro-9-(3-acetamido-propanoyloxy)-10-methoxy-2,2,4-trimethyl-5-allyl-1H-[1]benzopyrano[3,4-f]quinoline], the Ki in experiment [1] (setting [3]) was determined as 0.91 nM; in experiment [2], 204 nM.
On to `CC1=CC(C)(C)Nc2ccc3c(c21)C(Cc1ccccc1)Oc1ccc(O)c(Cl)c1-3` (racemic) [Example 429, (+/−)2,5-Dihydro-9-hydroxy-10-chloro-2,2,4-trimethyl-5-benzyl-1H-[1]benzopyrano[3,4-f]quinoline], for which the Ki was 4.1 nM in experiment [1] (setting [3]) and 29.1 nM in experiment [2].
As for `C=CCC1Oc2ccc(OC(=O)CNC(N)=O)c(OC)c2-c2ccc3c(c21)C(C)=CC(C)(C)N3` (racemic) [Example 432, (+/−)2,5-Dihydro-9-(N-carbamoyl-2-aminoacetoxy)-10-methoxy-2,2,4-trimethyl-5-allyl-1H-[1]benzopyrano[3,4-f]quinoline], the figures for the Ki in experiment [1] (setting [3]) and in experiment [2] were 1.4 nM and 207 nM, respectively.
Turning to `C=CCC1Oc2ccc(OCCCC(=O)OCC)c(OC)c2-c2ccc3c(c21)C(C)=CC(C)(C)N3` (racemic) [Example 433, (+/−)2,5-Dihydro-9-(4-ethoxy-4-oxo-butoxy)-10-methoxy-2,2,4-trimethyl-5-allyl-1H-[1]benzopyrano[3,4-f]quinoline], the Ki in experiment [1] (setting [3]) came out at 30.2 nM; in experiment [2], 1410 nM.
On the same counts, the results for `C=CCC1Oc2ccc(OC(=O)CCC(C)=O)c(OC)c2-c2ccc3c(c21)C(C)=CC(C)(C)N3` (racemic) [Example 434, (+/−)2,5-Dihydro-9-(4-oxo-pentanoyloxy)-10-methoxy-2,2,4-trimethyl-5-allyl-1H-[1]benzopyrano[3,4-f]quinoline] are 0.96 nM and 123 nM.
As to `COc1cccc2c1-c1ccc3c(c1[C@H]([C@H]1C=C(CO)CCC1)O2)C(C)=CC(C)(C)N3` (relative stereo) [Example 148], the inhibitory constant (Ki) was 2.8 nM in experiment [1] (setting [3]) and at least 10000 nM in experiment [2].
Turning to `COc1cccc2c1-c1ccc3c(c1[C@@H]([C@H]1C=C(CO)CCC1)O2)C(C)=CC(C)(C)N3` (relative stereo) [Example 149], the Ki is 2.7 nM in experiment [1] (setting [3]) and 4060 nM in experiment [2].
Take `COc1cccc2c1-c1ccc3c(c1[C@@H]([C@H]1C=C(CN(C)C)CCC1)O2)C(C)=CC(C)(C)N3` (relative stereo) [Example 165]: the figures for the inhibitory constant (Ki) in experiment [1] (setting [3]) and in experiment [2] were 14 nM and at least 10000 nM, respectively.
As for `COc1cccc2c1-c1ccc3c(c1[C@@H]([C@H]1C=C(CN(C)S(C)(=O)=O)CCC1)O2)C(C)=CC(C)(C)N3` (relative stereo) [Example 168, rel (5R, 3′R) 2,5-Dihydro-10-methoxy-5-(1-(N-methyl-N-methylsulfonylamino)methyl-3-cyclohexenyl)-2,2,4-trimethy-1H-[1]benzopyrano[3,4-f]quinoline], the figures for the Ki in experiment [1] (setting [3]) and in experiment [2] were 2.5 nM and at least 10000 nM, respectively.
For `COc1c(O)ccc2c1-c1ccc3c(c1[C@H]([C@H]1C=C(CO)CCC1)O2)C(C)=CC(C)(C)N3` (relative stereo) [Example 242], the values for the inhibition constant (Ki) in experiment [1] (setting [3]) and in experiment [2] were 0.53 nM and 3420 nM, respectively.
Regarding `COCC1=C[C@H]([C@@H]2Oc3ccc(O)c(OC)c3-c3ccc4c(c32)C(C)=CC(C)(C)N4)CCC1` (relative stereo) [Example 244, rel-(5S,3′R)-9-Hydroxy-5-[1-methoxymethyl-3-cyclohexenyl]-10-methoxy-2,2,4-trimethyl-2,5-dihydro-1H-[1]benzopyrano[3,4-f]quinoline], the results for the Ki in experiment [1] (setting [3]) and in experiment [2] were 6.3 nM and 804 nM, respectively.

What is called Ki is the equilibrium dissociation constant of an inhibitor or competing ligand from its target.
